From PubChem BioAssay (NCI)
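In this assay, cells in 96-well plates receive the compound at five concentrations for 48 hours. Endpoints are linearly interpolated between the surrounding concentrations. GI50 marks 50% less growth. The concentration for full growth arrest is given as TGI.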

Experiments:
Assay in all cases: DTP human tumour cell line panel, 48 h
SNB-19 CNS = test system: SNB-19 CNS
SK-MEL-5 melanoma = test system: SK-MEL-5 melanoma
NCI-H23 lung = test system: NCI-H23 lung
UACC-257 melanoma = test system: UACC-257 melanoma
NCI/ADR-RES ovarian = test system: NCI/ADR-RES ovarian
OVCAR-4 ovarian = test system: OVCAR-4 ovarian
KM12 colon = test system: KM12 colon
UACC-62 melanoma = test system: UACC-62 melanoma
M14 melanoma = test system: M14 melanoma
SNB-75 CNS = test system: SNB-75 CNS

Row | SMILES | TGI (SNB-19 CNS) | TGI (SK-MEL-5 melanoma) | TGI (NCI-H23 lung) | TGI (UACC-257 melanoma) | TGI (NCI/ADR-RES ovarian) | TGI (OVCAR-4 ovarian) | TGI (KM12 colon) | TGI (UACC-62 melanoma) | TGI (M14 melanoma) | TGI (SNB-75 CNS) | GI50 (SNB-19 CNS) | GI50 (SK-MEL-5 melanoma) | GI50 (NCI-H23 lung) | GI50 (UACC-257 melanoma) | GI50 (NCI/ADR-RES ovarian) | GI50 (OVCAR-4 ovarian) | GI50 (KM12 colon) | GI50 (UACC-62 melanoma) | GI50 (M14 melanoma) | GI50 (SNB-75 CNS)
1 | COC(=O)C1C(C(=O)OC)N(Cc2ccccc2)C(=O)N1Cc1ccccc1 (stereo unspecified) | > 100 µM | > 100 µM | > 100 µM | > 100 µM | > 100 µM | > 100 µM | > 100 µM | > 100 µM | > 100 µM | > 100 µM |  |  |  |  |  |  |  |  |  | 
2 | O=C1C(Cl)=C(N2CCN(C3=C(Cl)C(=O)c4ccccc4C3=O)CC2)C(=O)c2ccccc21 | 28.7 µM | 3.25 µM | 3.11 µM | 2.78 µM | 3.51 µM | 2.94 µM | 15.4 µM | 3.29 µM | 2.87 µM | 9.86 µM |  |  |  |  |  |  |  |  |  | 
3 | C#CCCCCC#Cc1ccccc1C(=O)OC | > 100 µM | > 100 µM | > 100 µM | > 100 µM |  | > 100 µM | > 100 µM | 94.7 µM | > 100 µM | 86.5 µM |  |  |  |  |  |  |  |  |  | 
4 | CC1=C(O)C(=O)[C@@H]2O[C@@H]2C1=O | 115 µM | 30.1 µM | 35.8 µM | 23.9 µM | 44.9 µM | 28.5 µM | 27.3 µM | 21.7 µM |  | 31.9 µM |  |  |  |  |  |  |  |  |  | 
5 | Oc1ccc(/C=C/c2cc(O)cc(O)c2)cc1 | > 100 µM |  | > 100 µM | > 100 µM | > 100 µM | > 100 µM | > 100 µM | > 100 µM | > 100 µM | > 100 µM |  |  |  |  |  |  |  |  |  | 
6 | COCCOCOc1ccc(OCc2ccccc2)cc1 | > 100 µM | > 100 µM | > 100 µM | > 100 µM | > 100 µM | > 51 µM | > 100 µM | > 100 µM |  | > 41.1 µM |  |  |  |  |  |  |  |  |  | 
7 | C/C(CCOC1CCCCO1)=C(\C)[Si](C)(C)C (stereo unspecified) | > 100 µM | > 100 µM | > 100 µM | > 100 µM |  |  | > 100 µM | > 100 µM | > 100 µM | > 100 µM |  |  |  |  |  |  |  |  |  | 
8 | COc1ccc2[nH]c(O)c(/C=c3/cc4c(c(-c5cc(OC)c(OC)c(OC)c5)n3)=Nc3ccccc3-4)c2c1 | > 100 µM | 77.8 µM | > 100 µM | > 100 µM | > 100 µM | > 100 µM | > 100 µM | > 100 µM | > 100 µM | > 100 µM | 26 µM | 2.47 µM | 5.28 µM | 29.7 µM | 3.3 µM | 4.41 µM | 5.04 µM | 13.6 µM | 6.32 µM | 26.7 µM
9 | CCCc1cc(=O)c2c(C)c3[nH]c4ccc(Cl)cc4c3c(C)c2[nH]1 | 8.9 µM | 21.4 µM | 10.5 µM | 4.74 µM | 10.2 µM | 3.43 µM | 12.3 µM |  | 9.52 µM | 7.93 µM |  |  |  |  |  |  |  |  |  | 
10 | CCN1c2ccccc2-n2c(C)nnc2-c2c1n[nH]c2-c1ccccc1 | > 100 µM | 35.3 µM | > 100 µM | > 100 µM | 73.1 µM | > 100 µM | > 100 µM | 98.9 µM | > 100 µM | > 100 µM |  |  |  |  |  |  |  |  |  | 
11 | C=CCN1C(=O)/C(=C/c2ccccc2)N=C1SC1OC(COC(=O)c2ccccc2)C(OC(=O)c2ccccc2)C1OC(=O)c1ccccc1 (stereo unspecified) |  | > 100 µM | > 100 µM | > 100 µM | > 100 µM | > 100 µM | > 100 µM | > 100 µM |  | > 100 µM |  |  |  |  |  |  |  |  |  | 
